From patent publication US20110250290A1, “DISINFECTANT COMPOSITIONS” (priority 2006, published 2011)

Tests used:
[1] = tested on: Pseudomonas syringae pv. phaseolicola HB-9 biofilm; experiment: PspHB-9 biofilm susceptibility to Oxysilver and copper sulfate
[2] = tested on: Pseudomonas syringae pv. phaseolicola HB-9 planktonic; experiment: PspHB-9 planktonic susceptibility to Oxysilver and copper sulfate

O=S(=O)([O-])[O-].[Cu+2] [Copper sulfate]
Bacteria/biofilm growth PspHB-9 Biofilm, cell counts ([1]; 1250 ppm): 5.15 log10 | Bacteria/biofilm growth PspHB-9 Biofilm, cell counts ([1]; 2900 ppm): 0 log10 | Bacteria/biofilm growth PspHB-9 Biofilm, cell counts ([1]; 4600 ppm): 0 log10 | concentration needed to be effective ([1]; planktonic and biofilm PspHB-9): at least 11460 ppm | Bacteria growth PspHB-9 Planktonic, cell counts ([2]; 1250 ppm): 2.95 log10 | Bacteria growth PspHB-9 Planktonic, cell counts ([2]; 2900 ppm): 0 log10 | Bacteria growth PspHB-9 Planktonic, cell counts ([2]; 4600 ppm): 0 log10
